Reference: a melting point compilation (Tetko et al.; mined from patent text by program, amines drawn as free bases though some values may be those of a salt)

`Cc1ccc(C(=S)c2ccc3n2CCCC3C#N)cc1` (stereo unspecified) showed a melting point of 118 to 119 °C.
With `CNC(=O)CCC(=O)c1ccc(OCC2CO2)cc1` (stereo unspecified) the melting point was 133 to 140 °C.
`CC(=O)Oc1ccccc1C(=O)Nc1ccc(-n2nc(C(F)(F)F)cc2C(F)(F)F)cc1` showed a melting point of 159 to 161 °C.
In the case of `Cc1cccc(CC(Nc2ccccc2)C(=O)NC(C#N)COCc2cccc(C(=O)O)c2)c1` (stereo unspecified), the melting point is reported as 135 to 137 °C.
`Cc1cccc(C(=O)O)c1OC(=O)C=Cc1ccccc1` gave a melting point of 141 to 142 °C.
With `CCCCCCCCCCCCCCS(=O)(=O)NC(=O)Nc1c(C(C)C)cccc1C(C)C` the melting point was 135 to 137 °C.
`Cc1cc([N+](=O)[O-])ccc1NCCNC(N)=O` showed a melting point of 186 °C.
`CCOCCOc1c(C)cc(Oc2ccc3c(c2)C=C(C(=O)O)CCS3(=O)=O)cc1C` gave a melting point of 149 to 153 °C.
In the case of `CCCN(CCCc1c[nH]c2c(F)cc(F)cc12)C1COc2c(C(N)=O)ccc(F)c2C1` (stereo unspecified), the melting point is reported as 130 °C.
Work on `Cc1nnc(SCC(=O)C23CC4CC(CC(C4)C2)C3)n1C` yielded a melting point of 113 to 114 °C.
`CC(C)(C)OC(=O)NCC(=O)Nn1cccc1C(=O)c1ccccc1Cl` gave a melting point of 156 to 158 °C.
With `OCC1OC(n2cnc3c(NCC(c4ccc(F)cc4)c4ccc(F)cc4)ncnc32)C(O)C1O` (stereo unspecified) the melting point was 75 to 80 °C.
Work on `Cc1ccc(C(=O)OC2CCN(Cc3ccccc3)CC2)cc1` yielded a melting point of 73 to 74 °C.
For `CCOC(=O)c1cn(CCO)c2cc(Cl)c(F)cc2c1=O`, the melting point was 202 °C.
In the case of `COc1ccc(C(=Cc2nnnn2C)c2ccc(OC)cc2)cc1`, the melting point is reported as 146 to 147 °C.
In the case of `CCCCC(=O)c1c(-c2ccc3cc(OC(Cc4ccccc4)C(=O)O)ccc3c2)oc2ccccc12` (stereo unspecified), the melting point is reported as 144 to 145 °C.
With `O=C(OCC(CO)(CO)COC(=O)c1ccccc1)c1ccccc1` the melting point was 104 to 105 °C.
In the case of `C=CCNc1nc(NCc2ccccc2)c2cc([N+](=O)[O-])ccc2n1`, the melting point is reported as 235 to 236 °C.
In the case of `COc1ccc(-c2nc(NC(=N)N)sc2-c2ccc(OC)cc2)cc1`, the melting point is reported as 121 to 130 °C.
Compound `O=C1CCC(=O)N1Cc1nc2sc3c(c2c(-c2ccc(Cl)cc2)c1Cl)CCN(Cc1ccccc1)C3` has a melting point of 254 to 255 °C.
`CCN(Cc1c(F)cccc1Cl)c1c([N+](=O)[O-])cc(C(F)(F)F)c(Cl)c1[N+](=O)[O-]` showed a melting point of 118 to 125 °C.
`O=C(O)Cc1ccc(O)c(Cl)c1Cl` showed a melting point of 105 to 106 °C.
In the case of `Cc1ccccc1N1CCN(CCc2ccc(N3CCCNC3=O)cc2)CC1`, the melting point is reported as 127 to 128 °C.
In the case of `O=C(c1cc(Cl)ccc1O)c1cc(Cl)cc([N+](=O)[O-])c1O`, the melting point is reported as 153 °C.
For `COC(=O)CCn1c(C)c(Cn2ccnc2)c2cc(CCC(=O)O)ccc21`, the melting point was 134 to 137 °C.
Compound `COC(=O)C1=C(C)NC(C)=C(C(=O)OC)C1c1ccccc1F` has a melting point of 206 to 208 °C.
`CN(C(=S)NN)c1ccccc1` showed a melting point of 121 to 122 °C.
Work on `CNc1nc2ccccc2cc1N` yielded a melting point of 133 to 136 °C.
In the case of `CCCCCNc1nc(NC(C)C)c2ncn(CC(=O)O)c2n1`, the melting point is reported as 173 to 176 °C.
`Cc1ccc(-c2nn(C(C)(C)C(=O)N(C)C)cc2C)c(C)c1` gave a melting point of 110 to 112 °C.
`O=C(Cc1ccncn1)c1ccc(Cl)cc1` showed a melting point of 110 °C.
Compound `C=CCn1c(=O)c2[nH]c(/C=C/c3cc(OC)c(OC)c(OC)c3)nc2n(CC=C)c1=O` has a melting point of 253 to 255 °C.
Compound `CCOC(=O)c1ccc(OCCC2CCc3c(c(OC)c(OC)c(OC)c3OC)CC2)cc1` has a melting point of 129 to 131 °C.
In the case of `NS(=O)(=O)c1cccc(-c2cccc(-c3nc(-c4ccc(C(F)(F)F)c(OCC(F)(F)F)c4)cc(C(F)(F)F)n3)c2)c1`, the melting point is reported as 188 °C.
Compound `FC(F)(F)c1cc(Cl)c(-n2ncc(-c3nc(C(F)(F)F)c[nH]3)n2)c(Cl)c1` has a melting point of 262 to 264 °C.
Work on `CC1(C)CNc2nc(-c3ccncc3)c(F)c(=O)n2C1` yielded a melting point of 190 to 192 °C.
Compound `CN(C)C=C(C=O)c1cccc(F)c1` has a melting point of 42 to 43.5 °C.
For `Nc1ccc2c(c1)C(C(=O)Oc1ccccc1)CCC2` (stereo unspecified), the melting point was 89 to 90 °C.
Work on `O=C(c1nc(NNNc2ccccc2)nc(C(=O)c2ccccc2O)n1)c1ccccc1O` yielded a melting point of 170 °C.
`COc1cc([N+](=O)[O-])c(C=O)cc1OCc1ccccc1` showed a melting point of 131 to 132 °C.
`CCOC(=N)c1ccc(-c2nc3c(s2)NCCCC3)cc1` gave a melting point of 141 to 143 °C.
In the case of `CCn1c(=O)c2[nH]c(/C=C/c3cccc(OC)c3)nc2n(CC)c1=O`, the melting point is reported as 271 to 272 °C.
For `CC(C(=O)O)c1ccc2nc3c(Cl)cc(Cl)cn3c(=O)c2c1` (stereo unspecified), the melting point was 241 °C.
`COC(=O)c1ccc(-c2n[nH]c3c2Cc2ccccc2-3)cc1` showed a melting point of 224 to 226 °C.
Work on `FC(F)(F)c1cccc(Oc2nccc(-c3ccc(Cl)c(Cl)c3)n2)c1` yielded a melting point of 106 °C.
For `CC(=O)Oc1ccc(CC(=O)Nc2cccc(/C=C/c3nc(C4CCC4)cs3)c2)c(C(=O)O)c1`, the melting point was 176 to 179 °C.
`COC1=CC2=C(CN1OC)C1=C(c3cc4c(cc3C1=O)OCO4)C(CCCC(C)O)C2=O` (stereo unspecified) gave a melting point of 288 to 290 °C.
In the case of `CCC(CC)(CCC#N)C(NC(=O)c1ccc(Cl)cc1)Nc1c(Nc2cccnc2)c(=O)c1=O` (stereo unspecified), the melting point is reported as 242 to 243 °C.
`CCN(CC)C(=O)C(=NO)c1c[nH]c2c1ccc1c3ccccc3[nH]c12` gave a melting point of 268 to 269 °C.
In the case of `CON(C)C(=O)Cc1ccc([N+](=O)[O-])cc1`, the melting point is reported as 75 to 75.5 °C.
With `COc1ccccc1-c1c(=O)[nH]c2cc(Cl)c(Cl)cc2[n+]1[O-]` the melting point was 239 to 241 °C.
